Laboratory results taken from ChEMBL document CHEMBL1201862, “PubChem BioAssay data set” (2004).
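Tested at 5 concentrations; 48 h exposure; 96-well plates; endpoints linearly interpolated, else capped at highest concentration. GI50 marks 50% less growth.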 The source made the active and inactive calls. Cut-off read from the data, not from the text of the source: active = GI50 up to about 1.1 µM and inactive = higher.

Tests used:
Assay in all cases: NCI-60 cell line screen, 48 h
DU-145 = test system: DU-145
OVCAR-4 = test system: OVCAR-4
SK-MEL-28 = test system: SK-MEL-28
SNB-19 = test system: SNB-19
SK-MEL-2 = test system: SK-MEL-2
OVCAR-8 = test system: OVCAR-8
OVCAR-5 = test system: OVCAR-5
OVCAR-3 = test system: OVCAR-3
HOP-62 = test system: HOP-62
SF-268 = test system: SF-268
IGROV-1 = test system: IGROV-1
NCI-H226 = test system: NCI-H226
HCC 2998 = test system: HCC 2998
SN12C = test system: SN12C
HT-29 = test system: HT-29
T47D = test system: T47D
NCI/ADR-RES = test system: NCI/ADR-RES
SW-620 = test system: SW-620
MDA-MB-231 = test system: MDA-MB-231
UO-31 = test system: UO-31

Measured: GI50

CC1=[N+]([O-])C(C)(C)N(O)C1(C)C
inactive: DU-145 > 100 µM | OVCAR-4 > 100 µM | SK-MEL-28 > 100 µM | SNB-19 > 100 µM | SK-MEL-2 > 100 µM | OVCAR-8 > 100 µM | OVCAR-5 > 100 µM | OVCAR-3 > 100 µM | HOP-62 > 100 µM | SF-268 > 100 µM | IGROV-1 > 100 µM | NCI-H226 > 100 µM | HCC 2998 > 100 µM | SN12C > 100 µM | HT-29 > 100 µM | T47D > 100 µM | NCI/ADR-RES > 100 µM | SW-620 > 100 µM | MDA-MB-231 > 100 µM | UO-31 > 100 µM

CCOC(=O)c1cc2nc3ccccc3c(=O)n2c2ccccc12
inactive: DU-145 > 10 µM | OVCAR-4 > 10 µM | SK-MEL-28 > 10 µM | SNB-19 > 10 µM | SK-MEL-2 > 10 µM | OVCAR-8 > 10 µM | OVCAR-5 > 10 µM | OVCAR-3 > 10 µM | HOP-62 > 10 µM | SF-268 > 10 µM | IGROV-1 > 10 µM | NCI-H226 > 10 µM | HCC 2998 > 10 µM | SN12C > 10 µM | HT-29 > 10 µM | T47D > 10 µM | NCI/ADR-RES > 10 µM | SW-620 > 10 µM | MDA-MB-231 > 10 µM | UO-31 > 10 µM

CSC(CC(=O)O)C(=O)O (stereo not given)
inactive: DU-145 > 100 µM | OVCAR-4 > 100 µM | SK-MEL-28 > 100 µM | SNB-19 > 100 µM | SK-MEL-2 > 100 µM | OVCAR-8 > 100 µM | OVCAR-5 > 100 µM | OVCAR-3 > 100 µM | HOP-62 > 100 µM | SF-268 > 100 µM | IGROV-1 > 100 µM | NCI-H226 > 100 µM | HCC 2998 12.5 µM | SN12C > 100 µM | HT-29 > 100 µM | T47D > 100 µM | NCI/ADR-RES > 100 µM | SW-620 > 100 µM | MDA-MB-231 > 100 µM | UO-31 > 100 µM

Oc1ccc2c(c1)-c1c(c3cc(O)ccc3n1CCN1CCOCC1)CC2
inactive: DU-145 28.4 µM | OVCAR-4 25.4 µM | SK-MEL-28 18.5 µM | SNB-19 29 µM | SK-MEL-2 17.6 µM | OVCAR-8 30.4 µM | OVCAR-5 34.8 µM | OVCAR-3 20.7 µM | HOP-62 19.5 µM | SF-268 44.8 µM | IGROV-1 24.2 µM | NCI-H226 18.5 µM | HCC 2998 16.9 µM | SN12C 35.3 µM | HT-29 26 µM | T47D 18.8 µM | NCI/ADR-RES 24.8 µM | SW-620 23 µM | MDA-MB-231 17.6 µM | UO-31 17.5 µM

COC(=O)C1CC23CCCN4CCC5(c6ccccc6N(C=O)C15CC2)C43 (stereo not given)
inactive: DU-145 > 100 µM | OVCAR-4 > 100 µM | SK-MEL-28 > 100 µM | SNB-19 > 100 µM | SK-MEL-2 > 100 µM | OVCAR-8 > 100 µM | OVCAR-5 > 100 µM | OVCAR-3 > 100 µM | HOP-62 > 100 µM | SF-268 > 100 µM | IGROV-1 > 100 µM | NCI-H226 > 100 µM | HCC 2998 > 100 µM | SN12C > 100 µM | HT-29 > 100 µM | T47D > 100 µM | NCI/ADR-RES > 100 µM | SW-620 > 100 µM | MDA-MB-231 > 100 µM | UO-31 > 100 µM

C=C(C)C(=O)O[C@H]1CC2(CO)O[C@@H]2CC/C(COC(C)=O)=C/C2OC(=O)C(=C)[C@@H]21 (stereo not given in full)
inactive: DU-145 > 96.6 µM | OVCAR-4 39.6 µM | SK-MEL-28 23.6 µM | SNB-19 > 100 µM | SK-MEL-2 52.4 µM | OVCAR-8 22 µM | OVCAR-5 > 100 µM | OVCAR-3 30.2 µM | HOP-62 > 100 µM | SF-268 > 100 µM | IGROV-1 > 64.6 µM | NCI-H226 > 46.1 µM | HCC 2998 44.6 µM | SN12C 92 µM | HT-29 34.8 µM | T47D 29.5 µM | NCI/ADR-RES 45.6 µM | SW-620 19.6 µM | MDA-MB-231 61.4 µM | UO-31 22.5 µM

S=C=NCc1ccccc1 [BENZYL ISOTHIOCYANATE]
inactive: DU-145 4.13 µM | OVCAR-4 3.8 µM | SK-MEL-28 3.08 µM | SNB-19 4.71 µM | SK-MEL-2 6.35 µM | OVCAR-8 2.62 µM | OVCAR-5 10.9 µM | OVCAR-3 2.75 µM | HOP-62 3.05 µM | SF-268 3.35 µM | IGROV-1 2.51 µM | NCI-H226 10.1 µM | HCC 2998 8.28 µM | SN12C 3.7 µM | HT-29 2.47 µM | T47D 10.4 µM | NCI/ADR-RES 3.43 µM | SW-620 2.35 µM | MDA-MB-231 1.8 µM | UO-31 2.72 µM

O=P1(NCCCl)OCCCN1CCCl (stereo not given) [IFOSFAMIDE]
inactive: DU-145 > 500 µM | OVCAR-4 415 µM | SK-MEL-28 385 µM | SNB-19 361 µM | SK-MEL-2 382 µM | OVCAR-8 388 µM | OVCAR-5 407 µM | OVCAR-3 365 µM | HOP-62 341 µM | SF-268 351 µM | IGROV-1 433 µM | NCI-H226 393 µM | HCC 2998 346 µM | SN12C 388 µM | HT-29 406 µM | T47D > 500 µM | NCI/ADR-RES 410 µM | SW-620 340 µM | MDA-MB-231 > 500 µM | UO-31 386 µM
